Data on ten molecules can be found in US20260183303A1, “PDK1 REGULATORY COMPOUND AND COMPOSITION CONTAINING THE SAME” (PROVIBIO CO., LTD., priority 2024, published 2026).

Counter-ions that a name gives are not always drawn.

In data set [1] the test system is T cells isolated from mouse spleens. As to the kind of experiment: T cell proliferation inhibition (CFSE flow cytometry, anti-CD3/anti-CD28 activation). The conditions noted are these: mouse spleen T cells, CD3/CD28 activated, cultured three days; for inhibition at 0.01 µM / inhibition at 0.1 µM / inhibition at 1 µM / inhibition at 10 µM / inhibition at 30 µM / inhibition at 50 µM: Mus musculus, T-cell, 72 h, read-out: Proliferation inhibition rate (%). In kind it is cell-based, C57BL/6 mice. As to the method: To verify the T cell proliferation inhibitory effect of the compounds according to the present invention, the following experiment was performed based on flow cytometry analysis using carboxyfluorescein diacetate succinimidyl ester (CFSE), a fluorescent dye that binds to intracellular molecules via covalent bonds.
Spleens were extracted from 7-week-old C57BL/6 mice, ground, and then separated into single cells using a strainer ([…], SPL). Red blood cells were removed using ACK (Ammonium-Chloride-Potassium) lysis buffer to isolate white blood cells.
Finally, using a MACS Magnetic Stand and LS column, T cells were isolated from the spleen.
The T cells isolated from the spleen were resuspended in 1 mL of free medium (RPMI-1640+200 U/mL penicillin+200 μg/mL streptomycin), and 0.3 μL of CFSE (10 mM) was added. The mixture was incubated at 37° C. for 5 minutes.
Free medium (10 mL) was added to stop the reaction, and the cells were centrifuged to obtain the cell pellet.
RPMI 1640 medium containing 10% FBS, 100 U/mL penicillin, 100 μg/mL streptomycin, and resuspended the cells. The cells were then seeded into a 96-well plate at a density of 2×10^5 cells per well and activated with CD3 and CD28 antibodies ([…]) to activate T cells.
The compound diluted in DMSO was added at concentrations of 10 nM, 100 nM, 1 μM, […], 30 μM, and 50 µM, with three wells per concentration, and cultured at 37° C. and 5% CO2 for three days. The cells were then analyzed using a FACS Canto instrument.
The proliferation inhibition rate (%) was calculated using the following formula: […]
In general terms: A flow cytometer gives signals particle by particle.

Data set [2] deals with Human B Lymphocyte cell line, SU-DHL-8. As to the kind of experiment: Relative cell viability (CCK-8), SU-DHL-8. The conditions noted are these: for Relative cell viability (%): 48 hours, untreated cells (DMSO) = 100%; for viability at 1 µM / viability at 10 µM / viability at 30 µM / viability at 50 µM: Homo sapiens, SU-DHL-8, 48 h; for viability at 1 µM: read-out: Relative cell viability (%), SU-DHL-8, 1 μM, untreated cells (DMSO) = 100%; for viability at 10 µM: read-out: Relative cell viability (%), SU-DHL-8, 10 μM, untreated cells (DMSO) = 100%; for viability at 30 µM: read-out: Relative cell viability (%), SU-DHL-8, 30 μM, untreated cells (DMSO) = 100%; for viability at 50 µM: read-out: Relative cell viability (%), SU-DHL-8, 50 μM, untreated cells (DMSO) = 100%. It counts as cell-based. As to the method:
Human-derived B lymphoma cell line SU-DHL-8 (Cat. #CRL-2961) purchased from ATCC was cultured in RPMI-1640 medium containing […], 100 U/mL penicillin, and 100 μg/mL streptomycin.
The cell culture medium was then harvested, centrifuged at 1,300 rpm for 5 minutes, and the supernatant was removed. The cells were resuspended in the same medium and dispensed into a 96-well plate (Costar 96-well cell culture plate, Corning) at 90 μL per well, resulting in the conditions specified in Table 5.
Then, 10 μL of CCK-8 was added to each well, and the plates were incubated again at 37° C. in a 5% CO2 incubator for 4 hours.
In other words, when the survival rate of untreated cells (DMSO) is set at 100%, the relative cell survival rate in each group treated with the drug at different concentrations is indicated.

As to `COc1ccc(CN2CCN(CCCCCCCCCCCCNC(=O)c3cccnc3N)CC2)cc1` [Compound 28, 2-Amino-N-(12-(4-(4-methoxybenzyl)piperazin-1-yl)dodecyl) nicotinamide], the “Proliferation inhibition rate (%)” value is reported as −0.27% in data set [1] (10 nM); 100.00% in data set [1] (100 nM); 100.00% in data set [1] (1 μM); 100.00% in data set [1] (10 μM); 100.00% in data set [1] (30 μM); 100.00% in data set [1] (50 μM). Further, the “Relative cell viability (%)” value turned out to be 5.46% in data set [2] (SU-DHL-8, 1 μM); 2.82% in data set [2] (SU-DHL-8, 10 μM); 0.33% in data set [2] (SU-DHL-8, 30 μM).

Regarding `CN(C)CCN1CCN(CCCCCCCCCCCCNC(=O)c2cccnc2N)CC1` [Compound 33, 2-Amino-N-(12-(4-(2-(dimethylamino)ethyl)piperazin-1-yl)dodecyl) nicotinamide], the “Proliferation inhibition rate (%)” value is given as −36.05% in data set [1] (10 nM); 100.00% in data set [1] (100 nM); 100.00% in data set [1] (1 μM); 100.00% in data set [1] (10 μM); 100.00% in data set [1] (30 μM); 100.00% in data set [1] (50 μM). The “Relative cell viability (%)” value in data set [2] (SU-DHL-8, 10 μM) is given as 4.32%; in data set [2] (SU-DHL-8, 30 μM), 3.35%; in data set [2] (SU-DHL-8, 50 μM) it was 2.66%.

In the case of `CC1CNCCN1CCCCCCCCCCCCNC(=O)c1cccnc1N` (stereo not drawn) [Compound 35, 2-Amino-N-(12-(2-methylpiperazin-1-yl)dodecyl) nicotinamide], the “Proliferation inhibition rate (%)” value in data set [1] (100 nM), in data set [1] (1 μM), in data set [1] (10 μM), in data set [1] (30 μM) and in data set [1] (50 μM) was 100.00% throughout. Further, the “Relative cell viability (%)” value was determined as 0.64% in data set [2] (SU-DHL-8, 10 μM) and 0.42% in data set [2] (SU-DHL-8, 30 μM).

Regarding `Nc1ncccc1C(=O)NCCCCCCCCCCCCN1CCC(Oc2ccncc2)CC1` [Compound 38, 2-Amino-N-(12-(4-(pyridin-4-yloxy)piperidin-1-yl)dodecyl) nicotinamide], the “Proliferation inhibition rate (%)” value in data set [1] (100 nM), in data set [1] (1 μM), in data set [1] (10 μM), in data set [1] (30 μM) and in data set [1] (50 μM) was 100.00% throughout. Also, the “Relative cell viability (%)” value in data set [2] (SU-DHL-8, 10 μM) is 3.30%.

With `CC(C)(C)OC(=O)N[C@H]1CCN(CCCCCCCCCCCCNC(=O)c2cccnc2N)C1` [Compound 49, tert-Butyl(S)-(1-(12-(2-aminonicotinamido)dodecyl)pyrrolidin-3-yl)carbamate], in data set [1] (10 nM), the inhibition at 0.01 µM was -22.6%. For the same molecule, the inhibition at 0.1 µM in data set [1] (100 nM) was found to be 100%. For the same molecule, in data set [1] (1 μM), the inhibition at 1 µM was 100%. Besides, the inhibition at 10 µM in data set [1] (10 μM) was found to be 100%. The inhibition at 30 µM in data set [1] (30 μM) was 100%. Besides, in data set [1] (50 μM), the inhibition at 50 µM was found to be 100%. For the same molecule, in data set [2], the viability at 1 µM was 8.93%, the viability at 10 µM is 8.02%, the viability at 30 µM is 7.48% and the viability at 50 µM is 4.09%.

As to `Cl.Nc1ncccc1C(=O)NCCCCCCCCCCCCN1CC[C@H](N)C1` [Compound 50, (S)-2-Amino-N-(12-(3-aminopyrrolidin-1-yl)dodecyl) nicotinamide hydrochloride], the “Proliferation inhibition rate (%)” value in data set [1] (100 nM), in data set [1] (1 μM), in data set [1] (10 μM), in data set [1] (30 μM) and in data set [1] (50 μM) was 100.00% throughout. In addition, in data set [2] (SU-DHL-8, 1 μM), the “Relative cell viability (%)” value came to 9.20%.

With `Cc1ccc(OC2CCN(CCCCCCCCCCCCNC(=O)c3cccnc3N)CC2)cc1` [Compound 51, 2-Amino-N-(12-(4-(p-tolyloxy)piperidin-1-yl)dodecyl) nicotinamide], the “Proliferation inhibition rate (%)” value in data set [1] (10 nM) is recorded as 0.77%; in data set [1] (1 μM), 100.00%; in data set [1] (10 μM) it was 100.00%; in data set [1] (30 μM), 100.00%; in data set [1] (50 μM), 100.00%. Also, the “Relative cell viability (%)” value in data set [2] (SU-DHL-8, 30 μM) was found to be 0.89%; in data set [2] (SU-DHL-8, 50 μM), 0.48%.

On to `Cc1ccc(C2CCN(CCCCCCCCCCCCNC(=O)c3cccnc3N)CC2)cc1` [Compound 55, 2-Amino-N-(12-(4-(p-tolyl)piperidin-1-yl)dodecyl) nicotinamide], for which the “Proliferation inhibition rate (%)” value in data set [1] (100 nM), in data set [1] (1 μM), in data set [1] (10 μM), in data set [1] (30 μM) and in data set [1] (50 μM) was 100.00% each time. Further, the “Relative cell viability (%)” value came to 1.10% in data set [2] (SU-DHL-8, 30 μM) and 0.97% in data set [2] (SU-DHL-8, 50 μM).

Consider `O=C(NCCCCCCCCCCCCN1CCNCC1)c1ccc(-c2ccccc2)o1` [Compound 90, 5-Phenyl-N-(12-(piperazin-1-yl)dodecyl)furan-2-carboxamide hydrochloride], for which the inhibition at 0.01 µM in data set [1] (10 nM) was -8.27%. Moreover, the inhibition at 0.1 µM in data set [1] (100 nM) is -2.03%. Also, the inhibition at 1 µM in data set [1] (1 μM) is 66.2%. Moreover, in data set [1] (10 μM), the inhibition at 10 µM came to 100%. Also, the inhibition at 30 µM in data set [1] (30 μM) is 100%. The inhibition at 50 µM in data set [1] (50 μM) was found to be 100%. Besides, in data set [2], the viability at 1 µM was determined as 7.19%, the viability at 10 µM was found to be 5.94%, the viability at 30 µM is 2.48% and the viability at 50 µM worked out at 1.94%.

As for `CN1CCN(C2CCN(CCCCCCCCCCCCNC(=O)c3cccnc3N)CC2)CC1` [Compound 124, 2-Amino-N-(12-(4-(4-methylpiperazin-1-yl)piperidin-1-yl)dodecyl) nicotinamide], the “Proliferation inhibition rate (%)” value in data set [1] (10 nM) is given as 0.00%; in data set [1] (100 nM), 20.00%; in data set [1] (1 μM) it was 30.00%; in data set [1] (10 μM), 100.00%; in data set [1] (30 μM), 100.00%; in data set [1] (50 μM), 100.00%. The “Relative cell viability (%)” value in data set [2] (SU-DHL-8, 1 μM) is reported as 30.43%; in data set [2] (SU-DHL-8, 10 μM), 30.70%; in data set [2] (SU-DHL-8, 30 μM) it was 32.10%; in data set [2] (SU-DHL-8, 50 μM) it was 31.72%.

In general, viability refers to a per cent measure of how many cells are alive, often set against a control.
